Experimental findings from patent US20250073337A1, “NOVEL SKIN-PERMEABLE PEPTIDE, COMPOSITION INCLUDING THE SAME FOR SKIN AND MUCOUS MEMBRANE, AND USE THEREOF” (CELLICON LAB INC., priority 2022, published 2025) are described below.

One series concerns actual human skin. As to conditions: mixture of peptide and caffeine vs caffeine alone, measured over time; FIG. 2. Here is the method: A mixture of the skin-permeable peptide of SEQ ID NO: 8 and caffeine or caffeine alone was treated to evaluate skin permeability thereof.
In detail, Franz diffusion cell assay was performed using actual human skin as in Example 1, and the permeation amount of caffeine was measured by HPLC and then compared (FIG. 2).

In the next series the test system is real human skin. As to conditions: mixture of peptide and lidocaine, 2 mM sample, 6 hours; compared with known peptide (TAT) and with lidocaine alone; FIG. 1.
Series [1] concerns human skin. The conditions noted are these: mixed with peptide vs treated alone; FIG. 3. On the procedure: The FITC conjugation method was performed in accordance with the manufacturer's instructions by purchasing an FITC conjugation kit (Lightning-Link® (ab188285)) from Abcam (Cambridge, MA, USA).
Series [2] concerns human skin. As to conditions: mixture of peptide and fluorescein liposome (180 nm) vs liposome alone, 3 hours; FIG. 4. On the procedure: Aqueous solutions were then obtained through Franz diffusion cell assay, and FITC fluorescence values were analyzed using a fluorescence microplate reader (SpectraMax i3, Molecular Devices, USA).
Fluorescein was liposomized using a liposome kit purchased from Sigma Aldrich (MO, USA) and liposomizing Fluorescein was used as liposome for the skin permeability tests.

For the next series, the system named is HDF cells. The series can be described thus: Collagen production in HDF cells (Collagen type I ELISA). The class given is cell-based. As to conditions: mixture of peptide and KTTKS peptide vs KTTKS alone, 48 hours; FIG. 5. Here is the method:
In order to examine the efficacy improvement of the bioactive material due to the skin permeation effect of the active ingredient by the peptide of SEQ ID NO: 8, HDF cells were treated with a mixture of KTTKS peptide, which is a bioactive material, and the peptide of SEQ ID NO: 8, or treated with KTTKS peptide alone, and collagen production amounts were analyzed using an ELISA assay.
HDF cells used in this experiment were purchased from Thermo Fisher Scientific (Waltham, MA, USA). HDF cells were cultured in Dulbecco's Modified Eagle's Medium (DMEM) supplemented with 10% fetal bovine serum (FBS), 100 U/mL penicillin, and 100 μg/mL streptomycin (Gipco, Life Technologies, Grand Island, NY, USA) and cultured in a 5% CO2 incubator at 37° C.
HDF cells at a density of 2×10^5 cells/mL were dispensed in a volume of 250 μL in 48 wells and allowed to stabilize for 24 hours. Samples were treated at different concentrations and cultured in a CO2 incubator for 48 hours, and then each culture was obtained. […] 100 μL of TMB substrate was dispensed therein, left in the dark for 30 minutes, and treated with 50 μL of a stop solution, and then absorbance was measured at 450 nm with a microspectrophotometer (Molecular Device, Sunnyvale, CA, USA).
(In an ELISA, binding on a coated surface is turned into a signal by an enzyme label.)

Protocol for real human skin: A mixture of skin-permeable peptides consisting of any one amino acid sequence selected from SEQ ID NO: 5 to SEQ ID NO: 8 and derivatives thereof of SEQ ID NO: 1 to SEQ ID NO: 4, or the known peptide and lidocaine, or lidocaine alone was treated to evaluate skin permeability.
In detail, to evaluate the skin permeability, real human skin was used and the skin permeability was measured by a Franz diffusion cell assay, and the permeation amount of lidocaine was measured by HPLC and then compared.
Human skin used in this experiment was purchased from UMC Science Co., Ltd., Korea, and phosphate-buffered saline (PBS, Gibco, USA) was purchased from Sigma-Aldrich. […]
The temperature of the receptor fluid was maintained constant at 32° C.±1° C., and the humidity was maintained at 30-70%, followed by stabilization for 30 minutes. […] 6 hours later, sampling was performed through a sampling arm of the receptor, and for quantification, STD (100 μM standard sample) and the sample were analyzed through HPLC, and the permeability was expressed as a percentage (%) as compared to STD.

Regarding “H-RKLFRKILKYLR-OH [SEQ ID NO: 8, H2N-[Arg-Lys-Leu-Phe-Arg-Lys-Ile-Leu-Lys-Tyr-Leu-Arg]-CO2H]”, in the series on actual human skin, the “skin permeation amount of caffeine” value is listed as “significantly superior”. In the series with real human skin, the “skin permeation amount of lidocaine” value is “highest effect”. In the series on human skin [1], the “skin permeability effect of 3 kDa FITC-conjugated collagen” value is recorded as “strong skin permeability effects”, the “skin permeability effect of 30 kDa FITC-conjugated collagen” value is given as “strong skin permeability effects”, the “skin permeability effect of 300 kDa FITC-conjugated collagen” value is recorded as “strong skin permeability effects” and the “skin permeability effect of 800 kDa hyaluronic acid (HA)” value is recorded as “strong skin permeability effects”. In the series with human skin [2], the “skin permeation effect of the liposome” value is given as “remarkably increased”. The “production amount of collagen” value in the series with HDF cells is “significantly increased”.
